The record followed here is patent US12692262B2, “Substituted ureas as orexin receptor agonists” (Merck Sharp & Dohme LLC, priority 2020, dated 2026).

The target in this assay is T1, human OX2R (Homo sapiens, UniProt O43614).
T1 construct: expressed in transfected cells; host or cells: CHO (Chinese hamster ovary) cells grown under G418 selection
T1 sequence (O43614 1-444): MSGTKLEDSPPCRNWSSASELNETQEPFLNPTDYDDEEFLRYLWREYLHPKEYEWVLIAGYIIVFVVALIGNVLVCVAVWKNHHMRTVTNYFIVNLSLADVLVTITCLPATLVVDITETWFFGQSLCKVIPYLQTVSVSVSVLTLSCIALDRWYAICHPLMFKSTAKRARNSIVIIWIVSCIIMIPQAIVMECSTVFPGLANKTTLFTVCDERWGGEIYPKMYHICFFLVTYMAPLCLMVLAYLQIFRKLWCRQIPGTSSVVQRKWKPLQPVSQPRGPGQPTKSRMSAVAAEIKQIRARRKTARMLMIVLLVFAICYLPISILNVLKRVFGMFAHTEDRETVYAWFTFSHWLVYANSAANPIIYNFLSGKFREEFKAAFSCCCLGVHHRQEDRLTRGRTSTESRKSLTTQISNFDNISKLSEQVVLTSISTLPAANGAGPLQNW
As to the kind of experiment: IPOne (IP-1 accumulation) assay in CHO cells expressing human OX2R. The format is cell-based. The following applies: for EC50: CHO cells expressing human OX2R, IP-One assay, 2 h incubation, four parameter logistic fit, read-out: OX2R Potency, EC50; for % of maximum agonist effect (relative to Orexin A): percent effect vs mean max effect of a reference compound at 1 uM (100% activity vs Orexin A), human OX2R. The gist of the method: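 CHO cells stably expressing human OX2R, grown in Iscove's modified DMEM with 10% FBS; agonist-driven IP-1 accumulation via the Gαq pathway measured by HTRF (D2/AB-cryptate detection after lysis). EC50 taken as the inflection point of a four-parameter logistic fit.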

Structures are written as SMILES.

Consider `CC[C@H](CCC(F)F)NC(=O)N(CC)[C@@H](c1cc(-c2cn3cc(C)nc3c(OC)n2)c(OC)cn1)C(F)(F)F` [Example 6-1, 3-((R)-6,6-difluorohexan-3-yl)-1-ethyl-1-((S)-2,2,2-trifluoro-1-(5-methoxy-4-(8-methoxy-2-methylimidazo[1,2-a]pyrazin-6-yl)pyridin-2-yl)ethyl)urea], for which the half-maximal effective concentration (EC50) was determined as 22.6 nM and the “% of maximum agonist effect (relative to Orexin A)” value was determined as 101.0%.

Take `CC[C@H](CC(F)(F)F)NC(=O)N(CC)C(c1cc(-c2cn3ccnc3c(OC)n2)c(OC)cn1)C(F)(F)F` (stereo partly drawn) [Example 6-2, 1-ethyl-1-(2,2,2-trifluoro-1-(5-methoxy-4-(8-methoxyimidazo[1,2-a]pyrazin-6-yl)pyridin-2-yl)ethyl)-3-((R)-1,1,1-trifluoropentan-3-yl)urea]: the concentration for a half-maximal effect (EC50) is 8.1 nM and the “% of maximum agonist effect (relative to Orexin A)” value worked out at 100.1%.

Regarding `CCN(C(=O)NC(CC(F)(F)F)C1CC1)C(c1cc(-c2cn3ccnc3c(OC)n2)c(OC)cn1)C(F)(F)F` (stereo not shown) [Example 6-3, 3-(1-cyclopropyl-3,3,3-trifluoropropyl)-1-ethyl-1-(2,2,2-trifluoro-1-(5-methoxy-4-(8-methoxyimidazo[1,2-a]pyrazin-6-yl)pyridin-2-yl)ethyl)urea], the half-maximal effective concentration (EC50) was 13.6 nM and the “% of maximum agonist effect (relative to Orexin A)” value worked out at 100.2%.

As to `CCN(C(=O)NC(CCCF)C1CC1)[C@@H](c1cc(-c2cn3cc(C)nc3c(OC)n2)c(OC)cn1)C(F)(F)F` (stereo partly drawn) [Example 6-4, 3-(1-cyclopropyl-4-fluorobutyl)-1-ethyl-1-((S)-2,2,2-trifluoro-1-(5-methoxy-4-(8-methoxy-2-methylimidazo[1,2-a]pyrazin-6-yl)pyridin-2-yl)ethyl)urea], the EC50 was found to be 16 nM and the “% of maximum agonist effect (relative to Orexin A)” value is listed as 100.3%.

Consider `CCC(/C=C/C(F)(F)F)NC(=O)N(CC)[C@@H](c1cc(-c2cn3cc(C)nc3c(OC)n2)c(OC)cn1)C(F)(F)F` (stereo partly drawn) [Example 6-5, 1-ethyl-1-((S)-2,2,2-trifluoro-1-(5-methoxy-4-(8-methoxy-2-methylimidazo[1,2-a]pyrazin-6-yl)pyridin-2-yl)ethyl)-3-((E)-6,6,6-trifluorohex-4-en-3-yl)urea], for which the EC50 was 18.9 nM and the “% of maximum agonist effect (relative to Orexin A)” value amounted to 100.0%.

Regarding `CCC(NC(=O)N(CC)[C@@H](c1cc(-c2cn3cc(C)nc3c(OC)n2)c(OC)cn1)C(F)(F)F)C1CC1C(F)(F)F` (stereo partly drawn) [Example 6-6, 1-ethyl-1-((S)-2,2,2-trifluoro-1-(5-methoxy-4-(8-methoxy-2-methylimidazo[1,2-a]pyrazin-6-yl)pyridin-2-yl)ethyl)-3-(1-(2-(trifluoromethyl)cyclopropyl)propyl)urea], the EC50 was found to be 71.4 nM and the “% of maximum agonist effect (relative to Orexin A)” value was found to be 101.5%.

On to `CCN(C(=O)N[C@@H](CCC(F)F)C1CC1)[C@@H](c1cc(-c2cn3cc(C)nc3c(OC)n2)c(OC)cn1)C(F)(F)F` [Example 6-7, 3-((S)-1-cyclopropyl-4,4-difluorobutyl)-1-ethyl-1-((S)-2,2,2-trifluoro-1-(5-methoxy-4-(8-methoxy-2-methylimidazo[1,2-a]pyrazin-6-yl)pyridin-2-yl)ethyl)urea], for which the EC50 turned out to be 8.5 nM and the “% of maximum agonist effect (relative to Orexin A)” value turned out to be 100.9%.

As to `CC[C@H](CCC(F)(F)F)NC(=O)N(CC)[C@H](C)c1cccc(-c2cc(OC(F)F)c3nccn3c2)c1` [Example 7-1, 1-((R)-1-(3-(8-(difluoromethoxy)imidazo[1,2-a]pyridin-6-yl)phenyl)ethyl)-1-ethyl-3-((R)-6,6,6-trifluorohexan-3-yl)urea], the EC50 is 29.3 nM and the “% of maximum agonist effect (relative to Orexin A)” value is 96.8%.

As to `CCC(CCC(F)(F)F)NC(=O)N(CC)[C@H](C)c1cccc(-c2cn3ccnc3cc2OC)c1` (stereo partly drawn) [Example 7-2, 1-ethyl-1-((R)-1-(3-(7-methoxyimidazo[1,2-a]pyridin-6-yl)phenyl)ethyl)-3-(6,6,6-trifluorohexan-3-yl)urea], the EC50 worked out at 396 nM and the “% of maximum agonist effect (relative to Orexin A)” value is listed as 100.4%.

As to `CC[C@H](CCC(F)(F)F)NC(=O)N(CC)[C@H](C)c1cccc(-c2cc(C(F)F)c3nccn3c2)c1` [Example 7-3, 1-((R)-1-(3-(8-(difluoromethyl)imidazo[1,2-a]pyridin-6-yl)phenyl)ethyl)-1-ethyl-3-((R)-6,6,6-trifluorohexan-3-yl)urea], the EC50 came out at 491 nM and the “% of maximum agonist effect (relative to Orexin A)” value is 86.1%.

For the compound `CC[C@H](CCC(F)(F)F)NC(=O)N(CC)[C@H](C)c1cccc(-c2cc(COC)c3nccn3c2)c1` [Example 7-4, 1-ethyl-1-((R)-1-(3-(8-(methoxymethyl)imidazo[1,2-a]pyridin-6-yl)phenyl)ethyl)-3-((R)-6,6,6-trifluorohexan-3-yl)urea], the EC50 amounted to 595 nM and the “% of maximum agonist effect (relative to Orexin A)” value is on record as 97.8%.

For the compound `CC[C@H](CCC(F)(F)F)NC(=O)N(CC)[C@H](C)c1cccc(-c2cc(Cl)n3nccc3c2)c1` [Example 7-5, 1-((R)-1-(3-(7-chloropyrazolo[1,5-a]pyridin-5-yl)phenyl)ethyl)-1-ethyl-3-((R)-6,6,6-trifluorohexan-3-yl)urea], the EC50 turned out to be 851 nM and the “% of maximum agonist effect (relative to Orexin A)” value was found to be 93.7%.

For `CCC(CCC(F)(F)F)NC(=O)N(CC)[C@H](C)c1cccc(-c2cn3ccnc3cc2COC)c1` (stereo partly drawn) [Example 7-6, 1-ethyl-1-((R)-1-(3-(7-(methoxymethyl)imidazo[1,2-a]pyridin-6-yl)phenyl)ethyl)-3-(6,6,6-trifluorohexan-3-yl)urea], the EC50 is 1410 nM and the “% of maximum agonist effect (relative to Orexin A)” value stood at 100.8%.

On to `CC[C@H](CCC(F)(F)F)NC(=O)N(CC)[C@H](C)c1cccc(-c2cn3ccnc3c(SC)n2)c1` [Example 8-1, 1-ethyl-1-((R)-1-(3-(8-(methylthio)imidazo[1,2-a]pyrazin-6-yl)phenyl)ethyl)-3-((R)-6,6,6-trifluorohexan-3-yl)urea], for which the concentration giving a half-maximal response (EC50) turned out to be 211 nM and the “% of maximum agonist effect (relative to Orexin A)” value was 96.1%.

As for `CCOc1cc(-c2cccc([C@@H](C)N(CC)C(=O)N[C@H](CC)CCC(F)(F)F)c2)cn2ccnc12` [Example 8-2, 1-((R)-1-(3-(8-ethoxyimidazo[1,2-a]pyridin-6-yl)phenyl)ethyl)-1-ethyl-3-((R)-6,6,6-trifluorohexan-3-yl)urea], the EC50 worked out at 6.5 nM and the “% of maximum agonist effect (relative to Orexin A)” value is recorded as 97.7%.

For the compound `CC[C@H](CCC(F)(F)F)NC(=O)N(CC)[C@H](C)c1ccc(OC)c(-c2cc(C)c3nccn3c2)c1` [Example 8-3, 1-ethyl-1-((R)-1-(4-methoxy-3-(8-methylimidazo[1,2-a]pyridin-6-yl)phenyl)ethyl)-3-((R)-6,6,6-trifluorohexan-3-yl)urea], the EC50 came to 10.4 nM and the “% of maximum agonist effect (relative to Orexin A)” value was found to be 96.6%.

For the compound `CC[C@H](CCC(F)(F)F)NC(=O)N(CC)[C@H](C)c1ccc(OC)c(-c2cc(N)c3nccn3c2)c1` [Example 8-4, 1-((R)-1-(3-(8-aminoimidazo[1,2-a]pyridin-6-yl)-4-methoxyphenyl)ethyl)-1-ethyl-3-((R)-6,6,6-trifluorohexan-3-yl)urea], the EC50 worked out at 25.9 nM and the “% of maximum agonist effect (relative to Orexin A)” value came out at 98.7%.

By EC50 is commonly meant the concentration giving half of the maximal effect.
